The compounds below were run against T1, FLuc-C-HiBiT (Photinus pyralis, UniProt P08659) (assay: biochemical). Details: enzyme activity, 10 uM ATP; read-out: IC50 or SDR50 (mM) / FLuc E.
T1 construct: firefly luciferase with C-terminal HiBiT tag, E. coli expressed
T1 sequence (P08659 whole entry, looked up): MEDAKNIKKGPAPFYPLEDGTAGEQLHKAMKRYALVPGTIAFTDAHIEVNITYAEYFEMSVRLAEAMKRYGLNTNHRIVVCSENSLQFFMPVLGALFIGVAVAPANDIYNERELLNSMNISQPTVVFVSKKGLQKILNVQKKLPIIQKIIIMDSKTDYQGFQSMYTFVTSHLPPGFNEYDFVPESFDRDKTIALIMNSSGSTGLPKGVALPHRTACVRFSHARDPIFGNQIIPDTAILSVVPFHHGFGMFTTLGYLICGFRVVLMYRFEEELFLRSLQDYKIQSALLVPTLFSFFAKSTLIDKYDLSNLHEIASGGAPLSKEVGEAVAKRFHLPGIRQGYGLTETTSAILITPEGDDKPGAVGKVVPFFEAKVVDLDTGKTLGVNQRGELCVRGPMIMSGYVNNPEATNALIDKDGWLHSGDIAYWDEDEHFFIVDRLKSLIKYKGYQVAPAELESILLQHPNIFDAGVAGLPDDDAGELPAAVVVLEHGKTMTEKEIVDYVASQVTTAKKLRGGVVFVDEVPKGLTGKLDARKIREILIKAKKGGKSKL

Row | IC50 [µM] | SMILES
1 | 7 | O=C1NCCCc2[nH]c(-c3cc(-c4cccc(F)c4)no3)nc21 [NCGC00447462-01]
2 | 4.53 | O=C(Nc1ccccc1)c1nc2c(o1)CCN(Cc1ccccc1)CC2 [NCGC00413286-01]
3 | 9.89 | COc1ccccc1C(=O)NCCn1ccn2nc(-c3ccc(C)cc3C)cc2c1=O [NCGC00456987-01]
4 | 18 | COc1ccc(-c2ncc3c(n2)OCCN(Cc2ccccc2)C3=O)cc1 [NCGC00413617-01]
5 | 9.89 | COc1ccc(-c2noc(Nc3ccc(C)c(C)c3)n2)cc1 [NCGC00422330-01]
6 | 9.89 | CN(Cc1nccs1)c1ccc(-c2nc(-c3ccccc3F)no2)cn1 [NCGC00425298-01]
7 | 20.2 | Cc1ccc(-c2noc([C@@H]3Cc4[nH]cnc4CN3C(=O)Nc3cccc(F)c3)n2)cc1 [NCGC00401633-01]
8 | 7 | Cc1ccc(-c2cc3c(=O)n(CCNC(=O)c4ccccc4F)ccn3n2)c(C)c1 [NCGC00456982-01]
9 | 11.1 | O=C(Nc1ccc2c(c1)OCCO2)N1CCC(c2nc(C3CCOCC3)no2)CC1 [NCGC00453474-01]
10 | 12.4 | CCC(=O)NCCC1CCN(C(=O)Nc2ccc(C)cc2)CC1 [NCGC00424867-01]
11 | 9.89 | C[C@@H]1C(=O)O[C@H]2[C@H]1CC[C@@]1(C)Cc3sc(NC(=O)c4c(F)cccc4F)nc3[C@@H](C)[C@H]21 [NCGC00421654-01]
12 | > 30 | Nc1ncnc2c1ncn2[C@@H]1O[C@H](CO)[C@@H](O)[C@@H]1O [NCGC00178869-10]
13 | > 30 | Cc1ccc(C2=Nc3cc(Cl)ccc3NC(c3ccccc3)=N2)cc1 [NCGC00116648-01]
14 | 11.1 | Cc1nc2ccc(-c3nc(C4CCOC4)no3)cc2s1 (centres unmarked) [NCGC00446448-01]
15 | 12.8 | COc1cccc(-c2cccc(COc3cnc4c(ccn4CC(=O)O)c3)c2)c1F [NCGC00418177-01]
16 | 18 | COc1cccc(CN2CCNc3cc(Nc4cccnc4)ncc3C2)c1 [NCGC00411206-01]
17 | 1.57 | Cc1ccc(-c2cc3c(=O)n(CCNC(=O)c4nn(C)c5ccccc45)ccn3n2)c(C)c1 [NCGC00456971-01]
18 | 15.7 | COC(=O)c1c(-c2cccs2)csc1NC(=O)c1ccc(C)cc1 [NCGC00118339-01]
19 | 0.624 | Cc1ccc(CSc2nc3cccnc3n2Cc2ccc(C(=O)NCc3ccco3)cc2)cc1 [NCGC00123842-01]
20 | 20.2 | COc1cc(Cl)ccc1-c1ccc(COc2ccc3c(cnn3CCC(=O)O)c2)cc1 [NCGC00418159-01]
21 | 10.1 | CC(=O)NC1(C)CCN(Cc2cccc(-c3ccc4c(ccn4C)c3)c2)C1 (centres unmarked) [NCGC00410415-01]

Row | IC50 [µM] | SMILES
22 | 1.61 | O=C1c2cnc(-c3cc4ccccc4o3)nc2OCCN1Cc1ccccc1 [NCGC00413600-01]
23 | 7.85 | CCCNc1cc(N2CCC(CCC(=O)O)CC2)ncn1 [NCGC00432805-01]
24 | 3.94 | COc1ccc(-c2cc(=O)c3cc(OCC(=O)OC(C)C)ccc3o2)cc1 [NCGC00100608-01]
25 | 12.4 | CCn1ncc(NC(=O)Cn2ncc3cc(-c4ccc(C)cc4F)ccc32)n1 [NCGC00430893-01]
26 | 12.4 | COCCNc1oc(-c2ccc(OC)cc2)nc1C#N [NCGC00101301-01]
27 | 1.57 | COc1cccc(-c2noc(Nc3ccc4c(c3)OCCO4)n2)c1 [NCGC00422372-01]
28 | 11.1 | COc1ccc(-c2noc(Nc3ccc(OC)c(OC)c3)n2)cc1 [NCGC00422322-01]
29 | 11.4 | CC(=O)NC1(C)CCN(Cc2cccc(-c3ccc4ccccc4c3)c2)C1 (centres unmarked) [NCGC00410355-01]
30 | 5.56 | CCN(CC)C(=O)N1CCOC(c2ccc3cc(OC)ccc3c2)C1 (centres unmarked) [NCGC00431059-01]
31 | 15.7 | COc1ccc(-c2noc(-c3ccc(N4CCN(C)CC4)c([N+](=O)[O-])c3)n2)cc1 [NCGC00119282-01]
32 | > 30 | c1ccc(CCCNc2nccc(-c3ccccn3)n2)nc1 [NCGC00443451-01]
33 | > 30 | CC(C)(CC(=O)O)CC(=O)N1Cc2nc[nH]c2C[C@H]1c1nc(Cc2ccccc2)no1 [NCGC00396501-01]
34 | 5.56 | COc1cccc(-n2nnc(-c3nc(-c4ccccc4F)no3)c2C)c1 [NCGC00128608-01]
35 | > 30 | CCCCC(=O)Nc1cc(-c2nc3ccccc3s2)ccc1C [NCGC00596082-01]
36 | 1.01 | CC(=O)Nc1cccc(-c2ccc(COc3ccc4c(cnn4CCC(=O)O)c3)cc2)c1 [NCGC00418146-01]
37 | 11.1 | Cc1ccc(C)c(N2CCN(C(=O)C3CCN(c4nc(-c5ccc(C(C)C)cc5)no4)CC3)CC2)c1 [NCGC00134060-01]
38 | 18 | O=C(Nc1cc(Cl)cc(Cl)c1)c1ccn2nccc2c1 [NCGC00477139-01]
39 | 0.197 | O=C(Nc1ccc2c(c1)OCO2)c1cccc2c1CCN2C(=O)Nc1ccc(F)cc1 [NCGC00430184-01]
40 | 11.1 | Cc1ccc2nc(-c3ccc(NC(=O)c4ccccc4S(C)(=O)=O)cc3)sc2c1 [NCGC00141658-01]
41 | 11.1 | COc1ccc(-c2cn3nc(N4CCCC(C(=O)NCc5ccccc5OC)C4)sc3n2)cc1 (centres unmarked) [NCGC00123654-01]
42 | 12.4 | COc1ccccc1NC(=O)CN1C(=O)CC(c2ccc(C)c(C)c2)=Nc2ccccc21 [NCGC00130405-01]

Row | IC50 [µM] | SMILES
43 | 9.89 | CSCC(=O)Nc1nn(-c2ccc(F)cc2)c2cccc(N3CCOCC3)c12 [NCGC00439780-01]
44 | 12.4 | CN(Cc1cccnc1)c1ccc(-c2nc(COc3ccccc3)no2)cn1 [NCGC00425502-01]
45 | > 30 | CCSc1ccc(C(=O)Nc2ccc(-c3nc4ccc(C)cc4s3)cc2)cc1 [NCGC00134697-01]
46 | 18 | CNC(=O)c1cccc(-c2cnc(Nc3ccccc3)c3c2CCO3)c1 [NCGC00412768-01]
47 | > 30 | CCCCOc1nc(N)c2[nH]c(=O)n(Cc3cccc(CC(=O)OC)c3)c2n1 [NCGC00508895-01]
48 | > 30 | Cc1ccc(-c2nc3ccccc3s2)cc1NC(=O)c1ccc(-c2cccc(Cl)c2)o1 [NCGC00187468-01]
49 | > 30 | COc1cc(OC)cc(C(=O)Nc2ccccc2-c2nc3ccccc3s2)c1 [NCGC00098479-01]
50 | 18 | Cc1cc(-c2cc3c(cn2)CN(Cc2ccccc2O)CCN3)ccn1 [NCGC00411040-01]
51 | 2.48 | COc1ccc2cc(C3CN(C(=O)c4cccc(CO)c4)CCO3)ccc2c1 (centres unmarked) [NCGC00430133-01]
52 | 20.2 | COc1cccc(F)c1-c1ccc(COc2ccc3c(cnn3CCC(=O)O)c2)cc1 [NCGC00418057-01]
53 | > 30 | C=CCCC(=O)N1CCOc2c(O)cc(-c3nc4ccccc4s3)cc2C1 [NCGC00429409-01]
54 | 6.24 | Cc1ccc2nc(-c3ccc(NC(=O)COc4ccccc4)cc3)sc2c1 [NCGC00098210-01]
55 | > 30 | Cc1cc(F)ccc1OC1(C(=O)O)CCN(c2ncnc3[nH]cnc23)CC1 [NCGC00438333-01]
56 | 12.4 | CCN1c2cc(C(=O)Nc3ccc(N(C)C)cc3)ccc2C(=O)N2CCCCC21 (centres unmarked) [NCGC00452497-01]
57 | 0.785 | O=C(O)c1ccc(-c2noc(-c3ccc(Cl)cc3)n2)cc1 [NCGC00168101-01]
58 | 7.85 | CN1c2cc(C(=O)Nc3ccc4c(c3)OCCO4)ccc2C(=O)N2CCCC21 (centres unmarked) [NCGC00452151-01]
59 | 1.57 | Cc1ccc(NC(=O)Nc2ccc(C)n(CC(=O)NC(C)c3cccnc3)c2=O)cc1 (centres unmarked) [NCGC00430804-01]
60 | > 30 | COc1ccc(C(=O)NCC2Cc3cc(C)cc(-c4nc5ccccc5s4)c3O2)c(OC)c1OC (centres unmarked) [NCGC00240387-01]
61 | 11.1 | COc1ccc(-c2cc(N3CCCC(NC(=O)c4ccc5c(c4)OCO5)C3)[nH]n2)cc1 (centres unmarked) [NCGC00437602-01]
62 | 5.7 | CC(=O)N1CCNc2cc(Nc3ccc(F)cc3)ncc2C1 [NCGC00411083-01]
63 | > 30 | CCC[C@H](C)Oc1nc(N)c2[nH]c(=O)n(CCCCCN3CCCCC3)c2n1 [NCGC00856659-01]

Row | IC50 [µM] | SMILES
64 | 6.24 | Cc1ccc(-c2cc3c(=O)n(CCNC(=O)Cc4ccsc4)ccn3n2)c(C)c1 [NCGC00456972-01]
65 | > 30 | COc1cccc(C(=O)Nc2ccc(-c3nc4ccccc4s3)cc2Cl)c1 [NCGC00137802-01]
66 | 18 | COc1ccc(F)cc1-c1ccc(COc2ccc3c(cnn3CCC(=O)O)c2)cc1 [NCGC00418072-01]
67 | 18 | c1cncc(Nc2cc3c(cn2)CN(Cc2cc[nH]n2)CCN3)c1 [NCGC00411048-01]
68 | 14 | O=C(c1ccc2oc(-c3cccc(F)c3)nc2c1)N1CCCCC1CCO (centres unmarked) [NCGC00427691-01]
69 | 11.1 | Cc1ccc(C2Cn3nnc(C(=O)N4CCC(C(=O)Nc5ccccc5)CC4)c3CO2)cc1 (centres unmarked) [NCGC00449585-01]
70 | 20.2 | CC(C)c1cnc(N2CCC(COc3ccc4c(cnn4CCC(=O)O)c3)CC2)nc1 [NCGC00418130-01]
71 | 11.1 | O=C(Nc1ccc2c(c1)OCCO2)N1CCC2(CC1)CC(N1CCCC1)CCO2 (centres unmarked) [NCGC00453772-01]
72 | 11.1 | CCC(=O)N1CCc2ccc(C(=O)NC3CCCCC3)cc21 [NCGC00430262-01]
73 | 0.0157 | COc1ccc2oc(=O)c(C(=O)Nc3cccc(C(=O)O)c3)cc2c1 [NCGC00100698-01]
74 | 1.97 | COc1ccc(C(=O)Nc2onc3c2CCCC3)cc1 [NCGC00115906-01]
75 | > 30 | CCOc1ccc(C(=O)Nc2ccc(-c3nc4ccccc4s3)cc2)cc1[N+](=O)[O-] [NCGC00188053-01]
76 | 5.7 | C[C@@H]1C(=O)O[C@H]2[C@H]1CC[C@@]1(C)Cc3sc(NC(=O)COCC(=O)O)nc3[C@@H](C)[C@H]21 [NCGC00391314-01]
77 | 0.00248 | COc1ccc(-c2nc(-c3cccc(C(=O)O)c3)no2)cc1 [NCGC00168767-01]
78 | 7 | Cc1cccc(OCCc2noc(C3CN(C(=O)Nc4ccc5c(c4)OCCO5)C3)n2)c1 [NCGC00464383-01]
79 | 11.1 | CC1CCN(c2ncnc3c2cnn3-c2ccc(F)cc2)CC1 [NCGC00139049-01]
80 | 1.24 | COc1ccc2nc(-c3cccc(C(C)=O)c3)sc2c1 [NCGC00167608-01]
81 | 12.4 | Cc1c(-c2ccccc2F)[nH]c2ccc(CNC(=O)C3C=CCN3)cc12 (centres unmarked) [NCGC00438963-01]
82 | 7.85 | CCOc1ccc(C(=O)Nc2cc(-c3nc4cc(OC)ccc4o3)ccc2C)cc1[N+](=O)[O-] [NCGC00103318-01]

Row | SMILES | IC50 [µM]
83 | O=C(Nc1ccc2c(c1)OCCO2)c1cccn(Cc2ccccc2)c1=O [NCGC00137349-01] | 11.1

Reference: article PMC12064818, “A general assay platform to study protein pharmacology using ligand-dependent structural dynamics” (Nature Communications, 2025)
